Data published in publication PMC10325900, “A conserved motif in the disordered linker of human MLH1 is vital for DNA mismatch repair and its function is diminished by a cancer family mutation” (Nucleic Acids Research, 2023).
Entries after “also recorded” stand apart in the source; their conditions may differ. No end group written: not given here.

Assays:
[1] = test system: MLH1 variant p.Arg385Pro and PMS2; experiment: MMR complementation assay with peptide, MLH1 p.Arg385Pro variant; type: biochemical, human; conditions: ConMot-32 at 0, 7.5, 18 and 75 μM
Method: Mismatch repair activity was assessed as described in detail before ([79],[81]) (Supplementary Figure S3). […] Mismatched DNA plasmid substrate (Supplementary Figure S3) prepared according to previously published procedures ([81–83]) was added, and reactions in a final volume of 25 μl were incubated at 37°C for 15 min. Repair efficiency was scored by purifying the mismatched DNA plasmid from the reaction and assessing the fraction of homoduplex sequence by restriction digestion of the mismatched site using EcoRV. The substrate was additionally linearized with AseI.
For complementation assays with peptide, the indicated peptide(s) were used at stock concentrations of 50 or 500 μM in HEPES–KOH 20 mM pH 7.6 and supplemented to the MMR reactions.
In an identical way, we analyzed the effects of the ConMot peptide on MMR activity of the defective human MLH1 missense variant p.Arg385Pro (Figure 5).
Figure 5. […] Several MMR assays were performed; a representative agarose gel is shown (top), and average MMR activity values and standard deviations of three independent experiments were calculated (bottom). […]
In parallel, the single- strand nick is ligated. […] 40- 80% absolute repair, determined as signal intensities of the repair bands divided by sum of signal intensities of all plasmid bands, are optimally achieved and allow accurate determination of MMR activity of variants. […]

[2] = Circular dichroism (CD) of ConMot peptide; type: physicochemical; conditions: 33 μM peptide, 20 mM Na-phosphate pH 7.2, 20°C, 190–300 nm, three scans, 1 mm light path
Method: A blank was measured with buffer. […] A blank with buffer only was subtracted.

Sequence: SGSSDKVYAHQMVRTDSREQKLDAFLQPLSKP [ConMot-32]
- peptide concentrations required for restoration of p.Arg385Pro variant, compared with ConMot-deletion variant [1]: identical peptide concentrations as with the ConMot-deletion variant
- restoration of DNA mismatch repair activity of the p.Arg385Pro variant ([1]; 37°C, 15 min, average of three independent experiments, listed as ConMot peptide): Restoration of MMR activity was again observed; also recorded: could be overcome
- secondary structure formation by circular dichroism [2]: Neither investigation provided evidence for secondary structure formation
